Results published in US8853258B2, “C-linked hydroxamic acid derivatives useful as antibacterial agents” (Pfizer Inc., priority 2009, dated 2014).
In brackets after ≈: the same amount, converted by molar mass. Where two headings read alike, the source gives them in different places.

Tests used:
[1] = test system: Klebsiella pneumoniae: Ciprofloxacin-resistant isolate, ESBL, clinical isolate (KP-3700); assay: MIC determination (CLSI), KP-3700; type: cell-based
In short: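 Strain KP-3700, a clinical isolate producing extended-spectrum β-lactamases and resistant to ciprofloxacin, was tested. Minimum inhibitory concentrations determined via CLSI dilution methodology (M7-A7; M100-S18).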

[2] = test system: Pseudomonas aeruginosa UI-18: Wild-type (PA-7); assay: MIC determination (CLSI), PA-7; type: cell-based; settings: for MIC: Pseudomonas aeruginosa
In short: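 Wild-type P. aeruginosa UI-18 tested for minimum inhibitory concentration. Broth/agar dilution following CLSI standards (M7-A7, M100-S18).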

[3] = test system: Escherichia coli EC-1: VOGEL, mouse virulent; assay: MIC determination (CLSI), EC-1; type: cell-based; settings: for MIC: Escherichia coli
In short: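 E. coli Vogel, a mouse-virulent strain (EC-1), was tested. MICs were set by dilution susceptibility testing per CLSI standards M7-A7/M100-S18.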

[4] = test system: Acinetobacter baumanii/haemolyticus: Multidrug-resistant clinical isolate (AB-3167); assay: MIC determination (CLSI), AB-3167; type: cell-based; settings: for MIC: Acinetobacter baumannii
In short: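 Multidrug-resistant clinical isolate AB-3167 (A. baumannii/haemolyticus) tested for minimum inhibitory concentration following CLSI dilution susceptibility standards M7-A7 and M100-S18.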

[5] = target: Pseudomonas aeruginosa LpxC enzyme (Pseudomonas aeruginosa (strain ATCC 15692 / DSM 22644 / CIP 104116 / JCM 14847 / LMG 12228 / 1C / PRS 101 / PAO1), UniProt P47205); assay: IC50 Assay, LpxC Enzyme from P. aeruginosa (PA LpxC Enzyme IC50); type: biochemical
Protocol: In order to assess the compounds biological activity, selected in-vitro assays were conducted on selected compounds. One of the assays measured the compounds ability to disrupt the synthesis of lipopolysaccharide, LPS, which is a component of the outer membrane of Gram-negative bacteria. Disruption of this synthesis is lethal to the bacteria. The assay determined the compound's ability to inhibit LpxC, which is the first enzyme in the biosynthetic pathway for LPS (measured as IC50). Additionally, MICs (minimal inhibitory concentrations) were determined for several bacteria. The specific protocols are described below:
A) IC50 Assay, LpxC Enzyme from P. aeruginosa (Labled as PA LpxC Enzyme IC50
At the end of 1 hour, 5 ul of 1N HCl was added to stop the enzyme reaction; the plates were centrifuged, and then processed with the BioTrove Rapidfire HTMS Mass Spectrometry System. A no-enzyme control was used in calculating the IC50 values from the percent conversion values.

[6] = Pseudomonas aeruginosa UI-18 wild-type PA-7
[7] = Escherichia coli EC-1 VOGEL, mouse virulent
[8] = Acinetobacter baumanii/haemolyticus multidrug-resistant clinical isolate AB-3167
[9] = P. aeruginosa LpxC enzyme, read-out: PA LpxC enzyeme IC50
[10] = Table 3, read-out: PA LpxC enzyeme IC^50
[11] = Table 1, MIC, read-out: PA-7 (MIC)
[12] = Table 1, MIC, read-out: AB-3167 (MIC)

| SMILES | KP-3700 MIC [1] | PA-7 MIC [2, 6] | EC-1 MIC [3, 7] | AB-3167 MIC [4, 8] | other results |
| --- | --- | --- | --- | --- | --- |
| CC(CCc1ccc(-c2ccc3ncccc3c2)c(F)c1)(C(=O)NO)S(C)(=O)=O (stereo not shown) [Example 195] | 4 µg/mL | 2 µg/mL | 1 µg/mL | 32 µg/mL | IC50 [5, 9]: 0.733 nM |
| CC(CCc1ccc(OCc2cc(F)ccc2C(F)(F)F)cc1)(C(=O)NO)S(C)(=O)=O (stereo not shown) [Example 280, 4-(4-{[5-fluoro-2-(trifluoromethyl)benzyl]oxy}phenyl)-N-hydroxy-2-methyl-2-(methylsulfonyl)butanamide] | 32 µg/mL | – | – | – | MIC ([2]; Table 3, read-out: PA-7 MIC): 32 µg/mL (≈ 69 µM); MIC ([3]; read-out: EC-1 MIC): 8 µg/mL (≈ 17.3 µM); MIC ([4]; Table 3, read-out: AB-3167 MIC): 32 µg/mL (≈ 69 µM); IC50 [5, 10]: 13.8 nM |
| COc1ccc(-c2ccc(CC[C@](C)(C(=O)NO)S(C)(=O)=O)cc2)cn1 [Example 212] | 16 µg/mL | – | – | – | PA-7 MIC ([2]; Pseudomonas aeruginosa UI-18 (PA-7)): 1 µg/mL; EC-1 MIC ([3]; Escherichia coli EC-1): 4 µg/mL; AB-3167 MIC ([4]; Acinetobacter baumanii/haemolyticus AB-3167): ≧64 mg/L; IC50 [5, 9]: 0.237 nM |
| CC(CCc1ccc(-c2cc(F)c(C#N)c(F)c2)cc1)(C(=O)NO)S(C)(=O)=O (stereo not shown) [Example 127] | 8 µg/mL | 2 µg/mL | 1 µg/mL | 32 µg/mL | IC50 [5, 9]: 0.15 nM |
| Cc1ccc(-c2ccc(CCC(C)(C(=O)NO)S(C)(=O)=O)cc2)cc1C (stereo not shown) [Example 83] | 4 µg/mL | 2 µg/mL | 1 µg/mL | 8 µg/mL | IC50 [5, 9]: 0.242 nM |
| CN1CCN(c2ccc(-c3ccc(CCC(C)(C(=O)NO)S(C)(=O)=O)cc3)cc2)CC1 (stereo not shown) [Example 166] | 16 µg/mL | 2 µg/mL | 4 µg/mL | ≧64 mg/L | IC50 [5, 9]: 1.17 nM |
| CC(CCc1ccc(OCC2CCOCC2)cc1)(C(=O)NO)S(C)(=O)=O (stereo not shown) [Example 261, N-hydroxy-2-methyl-2-(methylsulfonyl)-4-[4-(tetrahydro-2H-pyran-4-ylmethoxy)phenyl]butanamide] | ≧64 mg/L | – | – | – | MIC ([2]; Table 3, read-out: PA-7 MIC): 32 µg/mL (≈ 83 µM); MIC ([3]; read-out: EC-1 MIC): ≥ 64 µg/mL; MIC ([4]; Table 3, read-out: AB-3167 MIC): ≥ 64 µg/mL; IC50 [5, 10]: 4.93 nM |
| CC(CCc1ccc(-c2ccc(OCCN)cc2)cc1)(C(=O)NO)S(C)(=O)=O (stereo not shown) [Example 116] | ≧64 mg/L | 4 µg/mL | ≧64 mg/L | ≧64 mg/L | – |
| CC(CCc1ccc(-c2ccc(C#N)nc2)cc1)(C(=O)NO)S(C)(=O)=O (stereo not shown) [Example 93] | 32 µg/mL | 4 µg/mL | 16 µg/mL | ≧64 mg/L | – |
| CC(CCc1ccc(OCCc2ccccc2)cc1)(C(=O)NO)S(C)(=O)=O (stereo not shown) [Example 271, N-hydroxy-2-methyl-2-(methylsulfonyl)-4-[4-(2-phenylethoxy)phenyl]butanamide] | ≧64 mg/L | – | – | – | MIC ([2]; Table 3, read-out: PA-7 MIC): ≥ 64 µg/mL; MIC ([3]; read-out: EC-1 MIC): 16 µg/mL (≈ 40.9 µM); MIC ([4]; Table 3, read-out: AB-3167 MIC): 32 µg/mL (≈ 81.7 µM) |
| CC(CCc1ccc(-c2ccc(C#N)s2)cc1)(C(=O)NO)S(C)(=O)=O (racemic) [Example 82] | 2 µg/mL | 0.5 µg/mL | 0.5 µg/mL | 8 µg/mL | – |
| CC(CCc1ccc(-c2ccccc2O)nc1)(C(=O)NO)S(C)(=O)=O (stereo not shown) [Example 143] | 32 µg/mL | 4 µg/mL | 4 µg/mL | ≧64 mg/L | – |
| CC(CCc1ccc(-c2cccc(O)c2F)cc1)(C(=O)NO)S(C)(=O)=O (stereo not shown) [Example 154] | – | 1 µg/mL | 4 µg/mL | ≧64 mg/L | KP-3700 MIC ([1]; Klebsiella pneumoniae ciprofloxacin-resistant ESBL clinical isolate KP-3700): 8 µg/mL |
| CC(CCc1ccc(-c2ccccc2)nc1)(C(=O)NO)S(C)(=O)=O (stereo not shown) [Example 3, N-Hydroxy-2-methyl-2-(methylsulfonyl)-4-(6-phenylpyridin-3-yl)butanamide] | ≧64 mg/L | – | – | – | MIC [2, 11]: 16 µg/mL (≈ 45.9 µM); MIC ([3]; read-out: EC-1: (MIC)): 16 µg/mL (≈ 45.9 µM); MIC [4, 12]: ≥ 64 µg/mL |
| CC(CCc1ccc(OC2CCCCC2)cc1)(C(=O)NO)S(C)(=O)=O (stereo not shown) [Example 238, 4-[4-(cyclohexyloxy)phenyl]-N-hydroxy-2-methyl-2-(methylsulfonyl)butanamide] | ≧64 mg/L | – | – | – | MIC ([2]; Table 3, read-out: PA-7 MIC): 8 µg/mL (≈ 21.7 µM); MIC ([3]; read-out: EC-1 MIC): 32 µg/mL (≈ 86.6 µM); MIC ([4]; Table 3, read-out: AB-3167 MIC): 32 µg/mL (≈ 86.6 µM) |
| CC(CCc1ccc(-c2ccc(C#N)cc2)cc1)(C(=O)NO)S(C)(=O)=O (stereo not shown) [Example 29] | 2 µg/mL | 1 µg/mL | 1 µg/mL | ≧64 mg/L | – |
| CC(CCc1ccc(OCc2cccc(Cl)c2)cc1)(C(=O)NO)S(C)(=O)=O (stereo not shown) [Example 250, 4-{4-[(3-chlorobenzyl)oxy]phenyl}-N-hydroxy-2-methyl-2-(methylsulfonyl)butanamide] | 8 µg/mL | – | – | – | MIC ([2]; Table 3, read-out: PA-7 MIC): 4 µg/mL (≈ 9.71 µM); MIC ([3]; read-out: EC-1 MIC): 2 µg/mL (≈ 4.86 µM); MIC ([4]; Table 3, read-out: AB-3167 MIC): 4 µg/mL (≈ 9.71 µM) |
| CC(CCc1ccc(-c2ccc(CC#N)cc2)cc1)(C(=O)NO)S(C)(=O)=O (stereo not shown) [Example 106] | 8 µg/mL | 1 µg/mL | 2 µg/mL | ≧64 mg/L | – |
| CC(C)Oc1ccc(-c2ccc(CCC(C)(C(=O)NO)S(C)(=O)=O)cc2)cc1 (racemic) [Example 49] | 4 µg/mL | 4 µg/mL | 2 µg/mL | 8 µg/mL | – |
| CS(=O)(=O)C(CCc1ccc(-c2ccc(C#N)cc2)cc1)C(=O)NO (stereo not shown) [Example 28] | ≧64 mg/L | 2 µg/mL | 32 µg/mL | ≧64 mg/L | – |
| CC(CCc1ccc(OCCCC2CCCCC2)cc1)(C(=O)NO)S(C)(=O)=O (stereo not shown) [Example 315, 4-[4-(3-cyclohexylpropoxy)phenyl]-N-hydroxy-2-methyl-2-(methylsulfonyl)butanamide] | 16 µg/mL | – | – | – | MIC ([2]; Table 3, read-out: PA-7 MIC): 32 µg/mL (≈ 77.8 µM); MIC ([3]; read-out: EC-1 MIC): 4 µg/mL (≈ 9.72 µM); MIC ([4]; Table 3, read-out: AB-3167 MIC): 2 µg/mL (≈ 4.86 µM) |
| C[C@@](CCc1ccc(-c2ccccc2)cc1)(C(=O)NO)S(C)(=O)=O [Example 7, (2R)-4-Biphenyl-4-yl-N-hydroxy-2-methyl-2-(methylsulfonyl)butanamide] | 2 µg/mL | – | – | – | MIC [2, 11]: 0.5 µg/mL (≈ 1.44 µM); MIC ([3]; read-out: EC-1: (MIC)): 0.5 µg/mL (≈ 1.44 µM); MIC [4, 12]: 16 µg/mL (≈ 46.1 µM) |
| CC(CCc1ccc(-c2cc(F)cc(F)c2)cc1)(C(=O)NO)S(C)(=O)=O (stereo not shown) [Example 97] | 4 µg/mL | 1 µg/mL | 2 µg/mL | 8 µg/mL | – |
| CC(CCc1ccc(OCc2nc(C3CCCC3)no2)cc1)(C(=O)NO)S(C)(=O)=O (stereo not shown) [Example 273, 4-{4-[(3-cyclopentyl-1,2,4-oxadiazol-5-yl)methoxy]phenyl}-N-hydroxy-2-methyl-2-(methylsulfonyl)butanamide] | 32 µg/mL | – | – | – | MIC ([2]; Table 3, read-out: PA-7 MIC): ≥ 64 µg/mL; MIC ([3]; read-out: EC-1 MIC): 16 µg/mL (≈ 36.6 µM); MIC ([4]; Table 3, read-out: AB-3167 MIC): ≥ 64 µg/mL |
| CSc1ccc(-c2ccc(CCC(C)(C(=O)NO)S(C)(=O)=O)cn2)cc1 (stereo not shown) [Example 121] | 4 µg/mL | 4 µg/mL | 1 µg/mL | ≧64 mg/L | – |
| CC(CCc1ccc(-c2c(F)cccc2F)cc1)(C(=O)NO)S(C)(=O)=O (racemic) [Example 54] | 16 µg/mL | 1 µg/mL | 4 µg/mL | 16 µg/mL | – |
| CC(CCc1ccc(-c2ccccc2C#N)cc1)(C(=O)NO)S(C)(=O)=O (stereo not shown) [Example 105] | 32 µg/mL | 16 µg/mL | 8 µg/mL | ≧64 mg/L | – |
| COc1ccc(CCC(C)(C(=O)NO)S(C)(=O)=O)cc1 (stereo not shown) [Example 135] | ≧64 mg/L | 32 µg/mL | ≧64 mg/L | ≧64 mg/L | – |
| Cc1cccc(-c2ccc(CCC(C)(C(=O)NO)S(C)(=O)=O)cc2)c1 (racemic) [Example 87] | 4 µg/mL | 1 µg/mL | 2 µg/mL | 8 µg/mL | – |
| CC(C)CCCOc1ccc(CCC(C)(C(=O)NO)S(C)(=O)=O)cc1 (stereo not shown) [Example 267, N-hydroxy-2-methyl-4-{4-[(4-methylpentyl)oxy]phenyl}-2-(methylsulfonyl)butanamide] | ≧64 mg/L | – | – | – | MIC ([2]; Table 3, read-out: PA-7 MIC): 16 µg/mL (≈ 43.1 µM); MIC ([3]; read-out: EC-1 MIC): 8 µg/mL (≈ 21.5 µM); MIC ([4]; Table 3, read-out: AB-3167 MIC): 8 µg/mL (≈ 21.5 µM) |
